Test results taken from article PMC7761830, “Structure-Based Virtual Screening of Ultra-Large Library Yields Potent Antagonists for a Lipid GPCR” (Biomolecules, 2020).

Legend:
wild-type CysLT1R = target: T1, wild-type CysLT1R (Homo sapiens, UniProt Q9Y271); assay: IP1 production assay, antagonist mode, co-stimulation with EC80 LTD4; type: cell-based; settings: for inhibition at 30 µM: HEK293, compound 30 µM, LTD4 at EC80, HEK293, wild-type CysLT1R, read-out: inhibition of LTD4-induced IP1 production, single-concentration screen; for Emax: HEK293, read-out: CysLT1R (LTD4) % Max Inhibition ± SEM
T1 construct: expressed in transfected cells; host or cells: HEK293 (ATCC CRL-1573), transient transfection with Lipofectamine 3000
T1 sequence (Q9Y271 1-337): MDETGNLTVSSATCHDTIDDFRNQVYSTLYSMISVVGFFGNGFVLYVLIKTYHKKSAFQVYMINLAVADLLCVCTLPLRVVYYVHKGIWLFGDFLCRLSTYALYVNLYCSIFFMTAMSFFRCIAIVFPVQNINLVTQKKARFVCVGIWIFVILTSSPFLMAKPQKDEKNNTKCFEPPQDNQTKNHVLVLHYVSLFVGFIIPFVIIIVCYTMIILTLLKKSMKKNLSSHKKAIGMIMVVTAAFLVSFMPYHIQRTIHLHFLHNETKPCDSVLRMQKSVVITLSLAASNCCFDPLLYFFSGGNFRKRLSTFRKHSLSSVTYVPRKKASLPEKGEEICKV
Description: (§1) For this assay, we used the Cisbio IP-One kit as previously described. […] At 48 h post-transfection, the media was removed and the cells were washed with fresh Hank’s Balanced Salt Solution (HBSS). […] After compound stimulation, the cells were incubated for 1 h at 37 °C and stimulated with IP1-D2 and Ab-Crypt reagents in Lysis Buffer. The cells were then incubated at room temperature for an additional hour. […] Normalized data were plotted using either the three-parameter or four-parameter EC50/IC50 fits of GraphPad Prism 8 (San Diego). […] Data represent the means ± SEM of at least three independent experiments performed in quadruplicate.

wild-type CysLT2R = target: T2, wild-type CysLT2R (Homo sapiens, UniProt Q9NS75); assay: as above; type: cell-based; settings: for inhibition at 30 µM: HEK293, compound 30 µM, LTD4 at EC80, HEK293, wild-type CysLT2R, read-out: inhibition of LTD4-induced IP1 production, single-concentration screen; for Emax: HEK293, read-out: CysLT2R (LTD4) % Max Inhibition ± SEM
T2 construct: expressed in transfected cells; host or cells: HEK293 (ATCC CRL-1573), transient transfection with Lipofectamine 3000
T2 sequence (Q9NS75 1-346): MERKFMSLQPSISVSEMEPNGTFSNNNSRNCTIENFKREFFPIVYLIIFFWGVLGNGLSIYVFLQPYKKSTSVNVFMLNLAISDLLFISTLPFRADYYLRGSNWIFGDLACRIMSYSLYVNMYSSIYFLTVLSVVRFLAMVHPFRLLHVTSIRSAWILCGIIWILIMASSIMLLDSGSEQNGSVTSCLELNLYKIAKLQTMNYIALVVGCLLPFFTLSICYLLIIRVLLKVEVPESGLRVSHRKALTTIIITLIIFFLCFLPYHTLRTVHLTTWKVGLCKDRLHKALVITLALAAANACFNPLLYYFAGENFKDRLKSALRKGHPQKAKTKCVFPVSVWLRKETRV
Description: as §1

## CC1(c2ccc(C(=O)Nc3nc(-c4ccccc4)cs3)cc2)NC(=O)NC1=O (centres unmarked) [BRI-12328]
wild-type CysLT1R
  remaining activity at 30 µM: 21%
  inhibition at 30 µM: ≥ 50%
  Emax: 33 ± 8%
wild-type CysLT2R
  remaining activity at 30 µM: 38.1%
  inhibition at 30 µM: ≥ 50%
  Emax: 5 ± 7%

## O=C(NCCc1c[nH]c2cc(Cl)ccc12)c1ccc(NC2=NS(=O)(=O)c3ccccc32)cc1 [BRI-12478]
wild-type CysLT1R
  remaining activity at 30 µM: 82.9%
wild-type CysLT2R
  remaining activity at 30 µM: 65.9%

## Cc1ccc(-c2nnc(SCC(=O)NC(N)=O)nc2-c2ccc(C)cc2)cc1 [BRI-12360]
wild-type CysLT1R
  remaining activity at 30 µM: 74.3%
wild-type CysLT2R
  remaining activity at 30 µM: 90.5%

## O=C(COC1CCCc2ccccc21)Nc1cccc(NC(=O)NCc2ccncc2)c1 (centres unmarked) [BRI-12405]
wild-type CysLT1R
  remaining activity at 30 µM: 70%
wild-type CysLT2R
  remaining activity at 30 µM: 40.6%
  inhibition at 30 µM: ≥ 50%
  Emax: 23 ± 6%

## O=C(O)COc1ccc(C=Cc2ccc3cccc(O)c3n2)cc1 [BRI-12340]
wild-type CysLT1R
  remaining activity at 30 µM: 70.2%
wild-type CysLT2R
  remaining activity at 30 µM: 78.9%

## Cn1nc(C2CC2)nc1CC(=O)Nc1ccc(N2CCNC2=O)cc1 [BRI-12402]
wild-type CysLT1R
  remaining activity at 30 µM: 66.8%
wild-type CysLT2R
  remaining activity at 30 µM: 40.2%
  inhibition at 30 µM: ≥ 50%
  Emax: 8 ± 4%

## O=C(Nc1cnc2[nH]ccc2c1)c1cnc2c(c1)c(=O)[nH]c(=O)n2Cc1ccccc1 [BRI-12401]
wild-type CysLT1R
  remaining activity at 30 µM: 89.5%
wild-type CysLT2R
  remaining activity at 30 µM: 35.6%
  inhibition at 30 µM: ≥ 50%
  Emax: 19 ± 15%

## CC(=O)c1ccc(OCC(=O)NC(CC(=O)O)c2cccs2)cc1 (centres unmarked) [BRI-12319]
wild-type CysLT1R
  remaining activity at 30 µM: 76.4%
wild-type CysLT2R
  remaining activity at 30 µM: 78.4%

## CCC(=O)Nc1ccc(S(=O)(=O)NC(C)(C)CC(=O)O)cc1 [BRI-12472]
wild-type CysLT1R
  remaining activity at 30 µM: 95.8%
wild-type CysLT2R
  remaining activity at 30 µM: 66.4%

## CCN(CC)C(=O)c1ccc(C(=O)OCc2cc(C(C)=O)no2)cc1 [BRI-12434]
wild-type CysLT1R
  remaining activity at 30 µM: 57.6%
wild-type CysLT2R
  remaining activity at 30 µM: 62%

## O=C(O)CSc1nc2ccccc2c2nc(CCc3ccccc3)nn12 [BRI-12314]
wild-type CysLT1R
  remaining activity at 30 µM: 66.7%
wild-type CysLT2R
  remaining activity at 30 µM: 96.9%

## O=C(O)CNC(=O)c1ccc(NS(=O)(=O)c2csc(-c3ccc(Cl)cc3)n2)cc1 [BRI-12433]
wild-type CysLT1R
  remaining activity at 30 µM: 76.2%
wild-type CysLT2R
  remaining activity at 30 µM: 62.7%

## COc1ccc(C2=NN(C(=O)CCC(=O)O)C(c3cccs3)C2)c(O)c1 (centres unmarked) [BRI-12316]
wild-type CysLT1R
  remaining activity at 30 µM: 91%
wild-type CysLT2R
  remaining activity at 30 µM: 90%

## COc1ccccc1OCc1ccc(C(=O)N[C@@H](CC(=O)O)c2ccc(Cl)cc2)o1 [BRI-12443]
wild-type CysLT1R
  remaining activity at 30 µM: 84.5%
wild-type CysLT2R
  remaining activity at 30 µM: 82.3%

## O=C(CCCc1ccc2[nH]c(=O)[nH]c2c1)Nc1ccc(C(=O)Nc2cccnc2)cc1 [BRI-12415]
wild-type CysLT1R
  remaining activity at 30 µM: 85.1%
wild-type CysLT2R
  remaining activity at 30 µM: 56.8%

## COc1ccc(N(CCC(=O)O)S(=O)(=O)c2csc(-c3ccc(F)cc3)n2)cc1 [BRI-12432]
wild-type CysLT1R
  remaining activity at 30 µM: 81%
wild-type CysLT2R
  remaining activity at 30 µM: 76.9%

## Cn1c(Cn2cc(-c3nnco3)ccc2=O)nc2cc(Cl)ccc21 [BRI-12337]
wild-type CysLT1R
  remaining activity at 30 µM: 72%
wild-type CysLT2R
  remaining activity at 30 µM: 91.3%

## CC(C)(C)n1nnc(COC(=O)C2OCCc3ccccc32)n1 (centres unmarked) [BRI-12445]
wild-type CysLT1R
  remaining activity at 30 µM: 86.6%
wild-type CysLT2R
  remaining activity at 30 µM: 67.7%

## Cc1cnnn1-c1ccc(NC(=O)c2cccc(NC(=O)CCCc3cccs3)c2)cc1 [BRI-12444]
wild-type CysLT1R
  remaining activity at 30 µM: 96.1%
wild-type CysLT2R
  remaining activity at 30 µM: 68.2%

## O=C(O)CNC(=O)c1ccc(NC(=O)C2Cc3cc(F)ccc3O2)cc1 (centres unmarked) [BRI-12329]
wild-type CysLT1R
  remaining activity at 30 µM: 88.8%
wild-type CysLT2R
  remaining activity at 30 µM: 87.8%

## O=C(NC(C(=O)O)c1ccccc1F)c1ccc(Cl)c(NC(=O)c2cccs2)c1 (centres unmarked) [BRI-12403]
wild-type CysLT1R
  remaining activity at 30 µM: 89.5%
wild-type CysLT2R
  remaining activity at 30 µM: 72%

## O=C(O)C(Cc1c[nH]c2ncccc12)NS(=O)(=O)c1csc(-c2ccc(F)cc2)n1 (centres unmarked) [BRI-12439]
wild-type CysLT1R
  remaining activity at 30 µM: 88.3%
wild-type CysLT2R
  remaining activity at 30 µM: 72.4%

## CCc1ncnc(N[C@H]2C[C@@H](CNC(=O)c3ccn4cc(C)nc4c3)C2)c1F [BRI-12458]
wild-type CysLT1R
  remaining activity at 30 µM: 51.3%
  inhibition at 30 µM: ≥ 50%
  Emax: 38 ± 16%
wild-type CysLT2R
  remaining activity at 30 µM: 40.9%
  inhibition at 30 µM: ≥ 50%
  Emax: 13 ± 10%

## O=C(O)CNC(=O)c1ccc(NC(=O)c2cnc3ccccc3c2)cc1 [BRI-12440]
wild-type CysLT1R
  remaining activity at 30 µM: 95.2%
wild-type CysLT2R
  remaining activity at 30 µM: 75%
